Measured values reported in PubChem BioAssay AID1963861 (Molecular Pharmacology Branch, DTP, NCI, 2024).

System: 885724-159-R-J1-PDC KRAS PDC multicell spheroid viability
Test: Anticancer human tumor 885724-159-R-J1-PDC patient-derived pancreatic adenocarcinoma cell line growth inhibition [KRAS2]
Settings: for IC50: curve of first compound; for viability, T/C: stronger effect = lower value
Description: Multicellular complex tumor spheroid response to RAS pathway inhibitors in combination with a targeted agents in patient-derived cell lines with oncogenic KRAS variants from multiple cancer types
A high-throughput screen of multi-cell type tumor spheroids was designed to identify active combinations of targeted small molecules and KRAS pathway inhibitors. Complex spheroids include a stromal component modeled by human endothelial cells (HUVEC) and fibroblasts modeled by human mesenchymal stem cells (MSCs). The concentration ranges selected for each drug and investigational agent were based upon clinically achievable concentrations if the clinical Cmax of the agent was known.
Compounds. The drugs and investigational agents: BI-3406 (NSC825286), BAY-293 (NSC824723), batoprotafib (TNO155; NSC825523), sotorasib (AMG 510; NSC818433), MRTX1257 (NSC819558), elimusertib (BAY 1895344; NSC800525), molibresib (GSK525762; NSC774829), temuterkib (LY3214996; NSC803410), venetoclax (NSC766270), alisertib (NSC759677), olaparib (NSC753686), talazoparib (NSC767125), erdafitinib (NSC781556), ipatasertib (NSC767898), cabozantinib (NSC761068), nintedanib (NSC756659), abemaciclib (NSC768073), docetaxel (NSC628503), trametinib (NSC758246), and sapanisertib (NSC764658) were obtained from the National Cancer Institute (NCI) Developmental Therapeutics Program Chemical Repository. The FDA-approved anticancer drug set is available from the Developmental Therapeutics Program. […] The stock solutions were prepared in dimethyl sulfoxide (DMSO, Sigma-Aldrich, St. Louis, MO, cat. D2650) at 800-fold the tested concentration and stored at -70 degrees C prior to their use. All drugs and investigational agents were tested over a range starting from a high concentration at or near the clinical Cmax and decreasing in half-log increments. If the clinical Cmax for an agent had not been determined, the highest concentration tested was 10 microM.
Cell Culture. All cells were maintained in an incubator at 37 degrees C and 5% CO2 with 95% humidity. The PDC lines were cultured according to standard operating procedures established by the NCI PDMR (https://pdmr.cancer.gov/sops/default.htm). Briefly, all PDCs were thawed and cultured in Matrigel-coated flasks prepared with a working solution of 1X Ham's F-12 nutrient mix, without supplementation (Invitrogen, Waltham, MA, cat. 11765054), 100 U/mL penicillin-streptomycin (Invitrogen, cat. 15140122), and 2.5% Matrigel (Corning Inc., Corning, NY, cat. 354248) for the first three passages. All PDCs were cultured in complete DMEM/F-12 media containing advanced DMEM/F-12 (Invitrogen, cat. 12634028), 4.9% defined fetal bovine serum, heat inactivated (HyClone Laboratories Inc., Logan, UT, cat. SH30070.03HI), 389 ng/mL hydrocortisone (Sigma-Aldrich, cat. H4001), 9.7 ng/mL human EGF recombinant protein (Invitrogen, cat. PHG0313), 23.4 microg/mL adenine (Sigma-Aldrich, cat. A2786), 97.3 U/mL penicillin-streptomycin (Invitrogen, cat. 15140122), 1.9 mM L-glutamine (Invitrogen, cat. 25030081), and 9.7 microM Y-27632 dihydrochloride (Tocris Bioscience, Bristol, United Kingdom, cat. 1254). The PDCs were cultured in complete DMEM/F12 media without 9.7 microM Y-27632 dihydrochloride for at least two passages prior to the screen. The established cell line HOP-62 was cultured in RPMI 1640 medium, HEPES (Invitrogen, cat. 22400105) with 10% defined fetal bovine serum (HyClone Laboratories Inc., cat. SH30070.03) and 2 mM L-glutamine (Invitrogen, cat. 25030081). The pooled donor HUVEC were cultured in endothelial cell growth medium 2 (PromoCell, Heidelberg, Germany, cat. C-22011) and the hMSC were cultured in mesenchymal stem cell growth medium 2 (PromoCell, cat. C-28009). For all experiments, HUVEC and hMSC were used at passages </=5, while the malignant cell lines were used at passages </=15. […]

[1] = second compound 0.1 µM, first compound 0.0316 µM
[2] = second compound 0.1 µM, first compound 0.1 µM
[3] = second compound 0.1 µM, first compound 0.316 µM
[4] = second compound 0.1 µM, first compound 1 µM
[5] = second compound 0.1 µM, first compound 3.16 µM
[6] = second compound 0.1 µM, first compound 10 µM
[7] = second compound 0.316 µM, first compound 0.0316 µM
[8] = second compound 0.316 µM, first compound 0.1 µM
[9] = second compound 0.316 µM, first compound 0.316 µM
[10] = second compound 0.316 µM, first compound 1 µM
[11] = second compound 0.316 µM, first compound 3.16 µM
[12] = second compound 0.316 µM, first compound 10 µM
[13] = second compound 1 µM, first compound 0.0316 µM
[14] = second compound 1 µM, first compound 0.1 µM
[15] = second compound 1 µM, first compound 0.316 µM
[16] = second compound 1 µM, first compound 1 µM
[17] = second compound 1 µM, first compound 3.16 µM
[18] = second compound 1 µM, first compound 10 µM
[19] = second compound 3.16 µM, first compound 0.0316 µM
[20] = second compound 3.16 µM, first compound 0.1 µM
[21] = second compound 3.16 µM, first compound 0.316 µM
[22] = second compound 3.16 µM, first compound 1 µM
[23] = second compound 3.16 µM, first compound 3.16 µM
[24] = second compound 3.16 µM, first compound 10 µM
[25] = second compound 10 µM, first compound 0.0316 µM
[26] = second compound 10 µM, first compound 0.1 µM
[27] = second compound 10 µM, first compound 0.316 µM
[28] = second compound 10 µM, first compound 1 µM
[29] = second compound 10 µM, first compound 3.16 µM
[30] = second compound 10 µM, first compound 10 µM
[31] = second compound 0.1 µM, first compound 0.01 µM
[32] = second compound 0.316 µM, first compound 0.01 µM
[33] = second compound 1 µM, first compound 0.01 µM
[34] = second compound 3.16 µM, first compound 0.01 µM
[35] = second compound 10 µM, first compound 0.01 µM
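Note: spheroids exposed to agents for 7 days before readout.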

Row | Structure (SMILES) | IC50 (second compound 0.1 µM) | IC50 (second compound 0.316 µM) | IC50 (second compound 1 µM) | IC50 (second compound 3.16 µM) | IC50 (second compound 10 µM) | viability, T/C [1] | viability, T/C [2] | viability, T/C [3] | viability, T/C [4] | viability, T/C [7] | viability, T/C [8] | viability, T/C [9] | viability, T/C [10] | viability, T/C [13] | viability, T/C [14] | viability, T/C [15] | viability, T/C [16] | viability, T/C [19] | viability, T/C [20] | viability, T/C [21] | further results
1 | CC(C)NCC(C(=O)N1CCN(c2ncnc3c2C(C)CC3O)CC1)c1ccc(Cl)cc1 (stereo not given) + C=CC(=O)N1CCN(c2nc(=O)n(-c3c(C)ccnc3C(C)C)c3nc(-c4c(O)cccc4F)c(F)cc23)C(C)C1 | > 10 µM | > 10 µM | > 10 µM | 3.78 µM | 0.175 µM | 111% | 88% | 80.3% | 77.5% | 103% | 93.6% | 74.1% | 80.5% | 105% | 92.9% | 83.5% | 79.8% | 99.9% | 90.2% | 77.8% | viability, T/C [5]: 79.4%; viability, T/C [6]: 64.9%; viability, T/C [11]: 77.9%; viability, T/C [12]: 60.8%; viability, T/C [17]: 71.8%; viability, T/C [18]: 50.1%; viability, T/C [22]: 68.3%; viability, T/C [23]: 57.9%; viability, T/C [24]: 31.8%; viability, T/C [25]: 73.5%; viability, T/C [26]: 68.8%; viability, T/C [27]: 30%; viability, T/C [28]: 11.5%; viability, T/C [29]: 18.8%; viability, T/C [30]: 5.87%
2 | CC1COCCN1c1cc(-c2ccnn2C)c2ccnc(-c3ccn[nH]3)c2n1 (stereo not given) + C=CC(=O)N1CCN(c2nc(=O)n(-c3c(C)ccnc3C(C)C)c3nc(-c4c(O)cccc4F)c(F)cc23)C(C)C1 | > 3.16 µM | 2.78 µM | 2.41 µM | > 3.16 µM | 0.222 µM | 92.4% | 69.2% | 56.2% | 49.2% | 84.6% | 68.2% | 58.3% | 49% | 83.8% | 66.9% | 60.2% | 47.8% | 92.1% | 66.2% | 58.9% | viability, T/C [31]: 111%; viability, T/C [5]: 55.2%; viability, T/C [32]: 104%; viability, T/C [11]: 51.5%; viability, T/C [33]: 106%; viability, T/C [17]: 51.4%; viability, T/C [34]: 93.7%; viability, T/C [22]: 49.4%; viability, T/C [23]: 54.1%; viability, T/C [35]: 71.7%; viability, T/C [25]: 65.7%; viability, T/C [26]: 55.9%; viability, T/C [27]: 46.7%; viability, T/C [28]: 45.6%; viability, T/C [29]: 42.7%
3 | CCN1CCN(Cc2ccc(Nc3ncc(F)c(-c4cc(F)c5nc(C)n(C(C)C)c5c4)n3)nc2)CC1 + C=CC(=O)N1CCN(c2nc(=O)n(-c3c(C)ccnc3C(C)C)c3nc(-c4c(O)cccc4F)c(F)cc23)C(C)C1 | > 1 µM | > 1 µM | > 1 µM | > 1 µM | > 1 µM | 99.3% | 92.6% | 87.2% | 92.6% | 102% | 95.1% | 101% | 107% | 106% | 101% | 106% | 104% | 104% | 101% | 110% | viability, T/C (second compound 0.1 µM, first compound 0.00316 µM): 116%; viability, T/C [31]: 98.6%; viability, T/C (second compound 0.316 µM, first compound 0.00316 µM): 114%; viability, T/C [32]: 104%; viability, T/C (second compound 1 µM, first compound 0.00316 µM): 112%; viability, T/C [33]: 116%; viability, T/C (second compound 3.16 µM, first compound 0.00316 µM): 114%; viability, T/C [34]: 122%; viability, T/C [22]: 114%; viability, T/C (second compound 10 µM, first compound 0.00316 µM): 72.6%; viability, T/C [35]: 84.2%; viability, T/C [25]: 84.8%; viability, T/C [26]: 85%; viability, T/C [27]: 88.8%; viability, T/C [28]: 80.2%
4 | CCNC(=O)CC1N=C(c2ccc(Cl)cc2)c2cc(OC)ccc2-n2c(C)nnc21 (stereo not given) + C=CC(=O)N1CCN(c2nc(=O)n(-c3c(C)ccnc3C(C)C)c3nc(-c4c(O)cccc4F)c(F)cc23)C(C)C1 | > 10 µM | 6.68 µM | > 10 µM | 2.22 µM | 0.352 µM | 109% | 95.6% | 86.3% | 65.6% | 105% | 94.4% | 77.6% | 61.3% | 116% | 89.6% | 66.3% | 63.9% | 105% | 90.5% | 66.3% | viability, T/C [5]: 57%; viability, T/C [6]: 52.7%; viability, T/C [11]: 55.3%; viability, T/C [12]: 47.2%; viability, T/C [17]: 51.1%; viability, T/C [18]: 51.8%; viability, T/C [22]: 51.8%; viability, T/C [23]: 51.8%; viability, T/C [24]: 45.9%; viability, T/C [25]: 78%; viability, T/C [26]: 66%; viability, T/C [27]: 48.2%; viability, T/C [28]: 43.1%; viability, T/C [29]: 39.2%; viability, T/C [30]: 33.6%
